Like-named read-outs stand apart in the source and are kept apart here.
Legend:
Jurkat lymphocytes = type: cell-based
Experimental: Cellular Loading of Nitroxides. Jurkat lymphocytes were cultured and loaded with nitroxides as previously described (5,6). […] After incubation, cells were washed 3 times in Hanks' Balanced Salt Solution (HBSS), and resuspended in […] HBSS. To lyse cells, […] digitonin was added to each cell suspension, which was then sonicated for […] in a bath sonicator (model G1 12SPIG, Laboratory Supplies Company, Inc., Hicksville, N.Y.). The lysate was assayed for nitroxide content by EPR spectroscopy. […] EPR Spectroscopy. EPR spectra were recorded on an X-band spectrometer (model E-109, Varian Inc., Palo Alto, Calif.) at the following settings: microwave power, 20 mW; microwave frequency, 9.55 GHz; field set, 3335 G; modulation frequency, 1 kHz; modulation amplitude, 0.5 G; field sweep, 80 G at 26.7 G min^-1 Where the amplitude of only the center spectral line was required, the sweep width was 8 […] software (Scientific Software Solutions, Northville, Mich.) was used for spectrometer control and data acquisition. Nitroxide signal was measured as the peak-to-trough amplitude of the center line of the three-line spectrum.

[1] = pH 6
[2] = Determination of logP of labile esters from HPLC capacity factors; details: pH 6
[3] = literature values used for logP vs. logk' calibration line; cited from earlier work
[4] = mouse, in vivo, iv
[5] = In vivo EPR: nitroxide entrapped in brain after iv injection and saline wash of head vasculature; details: mice, vasculature washed with normal saline

For `CCC(=O)OCOC(=O)C1CC(C)(C)N([O])C1(C)C` (centres unmarked) [Ester 3, 3-propanoylmethyloxycarbonyl-2,2,5,5-tetramethyl-1-pyrrolidinyloxyl], the “intracellular loading of nitroxide [1]” value (Jurkat lymphocytes) was “negligible effect on intracellular loading”.

In the case of `CC(C)(C)C(=O)OCOC(=O)C1CC(C)(C)N([O])C1(C)C` (centres unmarked) [Ester 6], the logP [1] is reported as 2.60.

`CCC(=O)OCOC(=O)C1CC(C)(C)N(O)C1(C)C` (centres unmarked) [Ester 3] showed a chromatographic logP [2] of 1.33.

Compound `CCCCCCC(=O)OCOC(=O)C1CC(C)(C)N(O)C1(C)C` (centres unmarked) [Ester 7] has a chromatographic logP [2] of 3.54.

For `C[C@]12CCC(=O)C=C1CC[C@@H]1[C@@H]2[C@@H](O)C[C@@]2(C)[C@H]1CC[C@]2(O)C(=O)CO` [hydrocortisone], the “known logP” value [3] is given as 1.53.

In the case of `CCCCC(=O)OCOC(=O)C1CC(C)(C)N([O])C1(C)C` (centres unmarked) [Ester 4, 3-pentanoylmethoxycarbonyl-2,2,5,5-tetramethyl-1-pyrrolidinyloxyl], the logP [1] is reported as 2.67 and the “percentage of original dose crossed the blood brain barrier and entrapped in the brain as nitroxide [1]” value (“percentage” for short) [4] is reported as “about 65%”.

For `CCCCC(=O)OCOC(=O)C1CC(C)(C)N(O)C1(C)C` (centres unmarked) [Ester 4], the chromatographic logP [2] was 2.67.

For `CC(=O)OCOC(=O)C1CC(C)(C)N([O])C1(C)C` (centres unmarked) [Ester 2, 3-Acetoxymethoxycarbonyl-2,2,5,5-tetramethyl-1-pyrrolidinyloxyl], the “percentage” value ([5]; 10-min point) was “about 42%” and the “percentage” value ([5]; 20-min point) was “about 42%”.

For “3-heptanoylmethoxycarbonyl-2,2,5,5-tetramethyl-1-pyrrolidinyloxyl [Ester 7]”, the “intracellular loading of nitroxide [1]” value (Jurkat lymphocytes) was “no additional improvement in loading”.
